Laboratory results as given in patent US11401277B2, “Anti-bacterial heterocyclic compounds and their synthesis” (Bugworks Research, Inc., priority 2017, dated 2022).
≈ marks a conversion by molar mass, not a printed value. Where “and” joins values, the source holds several entries; their conditions need not be identical. Identical values can stand only once.

Tests used:
[1] = target: T1, hERG potassium channel (Homo sapiens, UniProt Q12809); assay: hERG inhibition assay, QPatch HTX automated electrophysiology; type: cell-based; conditions: CHO cell line expressing hERG; whole-cell patch clamp, room temperature
T1 construct: Chinese Hamster Ovary cell line stably expressing the full-length hERG potassium channel; expressed in transfected cells
T1 sequence (Q12809 whole entry): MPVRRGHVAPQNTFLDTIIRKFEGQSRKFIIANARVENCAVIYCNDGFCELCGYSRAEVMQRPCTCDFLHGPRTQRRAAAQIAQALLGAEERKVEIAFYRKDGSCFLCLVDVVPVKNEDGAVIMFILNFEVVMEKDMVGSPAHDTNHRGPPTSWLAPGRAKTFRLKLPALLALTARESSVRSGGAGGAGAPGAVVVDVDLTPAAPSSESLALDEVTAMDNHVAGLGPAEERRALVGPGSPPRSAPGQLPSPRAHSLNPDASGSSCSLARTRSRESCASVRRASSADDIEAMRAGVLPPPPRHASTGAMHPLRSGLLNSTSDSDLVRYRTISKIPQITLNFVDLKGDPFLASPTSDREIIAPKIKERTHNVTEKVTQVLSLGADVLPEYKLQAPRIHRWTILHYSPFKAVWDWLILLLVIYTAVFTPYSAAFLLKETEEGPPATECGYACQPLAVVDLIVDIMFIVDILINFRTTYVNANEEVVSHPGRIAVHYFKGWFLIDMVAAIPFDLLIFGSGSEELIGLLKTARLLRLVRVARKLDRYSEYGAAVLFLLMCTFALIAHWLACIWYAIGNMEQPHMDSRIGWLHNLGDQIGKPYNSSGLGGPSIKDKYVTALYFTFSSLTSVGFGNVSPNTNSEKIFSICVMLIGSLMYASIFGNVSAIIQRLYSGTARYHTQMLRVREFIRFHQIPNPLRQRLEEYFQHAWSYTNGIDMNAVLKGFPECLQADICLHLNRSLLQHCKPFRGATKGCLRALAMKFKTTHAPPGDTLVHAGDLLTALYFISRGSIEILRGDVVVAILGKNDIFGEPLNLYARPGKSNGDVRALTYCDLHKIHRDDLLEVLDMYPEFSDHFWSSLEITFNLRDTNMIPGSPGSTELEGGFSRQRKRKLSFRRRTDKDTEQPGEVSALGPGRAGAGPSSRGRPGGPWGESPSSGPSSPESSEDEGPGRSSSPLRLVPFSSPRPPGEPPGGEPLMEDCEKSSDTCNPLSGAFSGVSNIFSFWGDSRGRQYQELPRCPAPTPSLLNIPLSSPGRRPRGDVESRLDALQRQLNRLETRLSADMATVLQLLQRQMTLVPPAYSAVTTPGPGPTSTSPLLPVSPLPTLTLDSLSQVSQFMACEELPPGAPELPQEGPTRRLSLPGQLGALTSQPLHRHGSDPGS
Protocol: The compounds were tested for inhibition of the human ether a go-go related gene (hERG) K+ channel using QPatch HTX automated electrophysiology.
Compounds of Formula I were solubilised to 100 mM in DMSO before dilution in HBPS to 300 μM.
Electrophysiological recordings were made from a Chinese Hamster Ovary cell line stably expressing the full-length hERG potassium channel. Single cell ionic currents were measured in whole-cell patch clamp configuration at room temperature (21-23° C.) using the QPatch HTX platform (Sophion). Intracellular solution contained (mM): 120 KF, 20 KCl, 10 EGTA, 10 HEPES and was buffered to pH 7.3. […] Cells were clamped at a holding potential of −80 mV. Cells were stepped to +20 mV for 2 s then −40 mV for 3 s before returning to the holding potential. This sweep was repeated 10 times at 10 s intervals. hERG currents were measured from the tail step and referenced to the holding current. Compounds were then incubated for 2 minutes prior to a second measurement of ion channel current using an identical pulse train.

[2] = test system: E. coli ATCC 25922; assay: MIC studies in LB Media; type: cell-based; conditions: Escherichia coli, ATCC25922, read-out: Minimum Inhibitory Concentration in LB Media, E. co
Protocol: (§1) Bacterial cultures that were stored as glycerol stocks at −80° C. were sub cultured on LB agar plates to obtain isolated colonies. A single colony of each strain was cultured in LB broth. The cultures were incubated at 37° C., 200 rpm till they reach an optical density (OD at 600 nm) of 0.8 to 1. […] Test compounds were dissolved in dimethyl sulfoxide (DMSO) to a stock concentration of 4 mg/ml. A two-fold dilution series of this DMSO stock was prepared in a 96 well V bottom microtitre plate from rows A to H. A 3 μL volume of these dilutions were transferred to a 96-well flat bottom microtitre assay plate. Controls to monitor the effects of DMSO and media sterility were included. Each well was inoculated with 150 μL of the above diluted culture. The plates were incubated at 37° C. overnight in a humidified incubator. The following morning, the plates were read using a Spectrophotometer at 600 nm wavelength.

[3] = test system: A. baumannii ATCC 19606; assay: MIC studies in LB Media; type: cell-based; conditions: Acinetobacter baumannii, ATCC19606, read-out: Minimum Inhibitory Concentration in LB Media, A. ba
Protocol: as §1

[4] = test system: S. aureus ATCC 29213; assay: MIC studies in LB Media; type: cell-based; conditions: Staphylococcus aureus, ATCC29213, MIC = 90% inhibition of growth, read-out: Minimum Inhibitory Concentration in LB Media, S. au
Protocol: as §1

[5] = test system: E. faecalis ATCC 29212; assay: MIC studies in LB Media; type: cell-based; conditions: Enterococcus faecalis, ATCC29212, read-out: Minimum Inhibitory Concentration in LB Media, E. fa
Protocol: as §1

[6] = test system: P. aurigenosa ATCC 27853; assay: MIC studies in LB Media; type: cell-based; conditions: Pseudomonas aeruginosa, ATCC27853, read-out: Minimum Inhibitory Concentration in LB Media, P. ae
Protocol: as §1

[7] = test system: K. pneumoniae ATCC 13883; assay: MIC studies in LB Media; type: cell-based; conditions: Klebsiella pneumoniae, ATCC13883, read-out: Minimum Inhibitory Concentration in LB Media, K. pn
Protocol: as §1

[8] = target: E. coli DNA gyrase (Escherichia coli, UniProt P0AES4+P0AES6); assay: biochemical; conditions: gel based supercoiling assay; read-out: E. coli DNA Gyrase IC50
Sequence of E. coli DNA gyrase (P0AES4 whole entry, one chain of several): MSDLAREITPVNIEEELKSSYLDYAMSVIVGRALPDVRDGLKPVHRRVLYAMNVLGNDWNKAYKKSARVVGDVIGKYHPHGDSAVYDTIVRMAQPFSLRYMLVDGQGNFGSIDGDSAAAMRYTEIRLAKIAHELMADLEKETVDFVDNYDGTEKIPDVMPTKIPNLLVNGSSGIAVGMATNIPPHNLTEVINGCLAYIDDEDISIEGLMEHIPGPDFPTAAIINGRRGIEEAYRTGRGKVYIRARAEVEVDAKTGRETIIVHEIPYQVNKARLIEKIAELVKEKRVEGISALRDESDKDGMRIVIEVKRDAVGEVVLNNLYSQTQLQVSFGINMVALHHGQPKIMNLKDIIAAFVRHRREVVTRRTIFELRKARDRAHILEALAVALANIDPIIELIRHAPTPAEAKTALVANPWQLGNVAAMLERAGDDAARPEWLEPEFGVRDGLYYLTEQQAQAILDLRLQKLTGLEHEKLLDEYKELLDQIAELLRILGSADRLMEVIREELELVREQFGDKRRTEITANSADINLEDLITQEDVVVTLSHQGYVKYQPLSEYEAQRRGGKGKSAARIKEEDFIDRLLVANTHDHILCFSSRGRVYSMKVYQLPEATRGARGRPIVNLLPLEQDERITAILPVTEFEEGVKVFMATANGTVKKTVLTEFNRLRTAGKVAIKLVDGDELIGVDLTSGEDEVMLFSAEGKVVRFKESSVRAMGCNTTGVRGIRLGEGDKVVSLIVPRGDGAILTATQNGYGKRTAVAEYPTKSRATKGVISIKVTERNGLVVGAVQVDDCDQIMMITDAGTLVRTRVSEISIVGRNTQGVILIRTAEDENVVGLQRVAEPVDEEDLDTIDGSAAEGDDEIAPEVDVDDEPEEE

[9] = target: E. coli topoisomerase IV (Escherichia coli, UniProt P0AFI2+P20083); assay: biochemical; conditions: gel based decatenation assay; read-out: E. coli Topo IV IC50
Sequence of E. coli topoisomerase IV (P20083 whole entry): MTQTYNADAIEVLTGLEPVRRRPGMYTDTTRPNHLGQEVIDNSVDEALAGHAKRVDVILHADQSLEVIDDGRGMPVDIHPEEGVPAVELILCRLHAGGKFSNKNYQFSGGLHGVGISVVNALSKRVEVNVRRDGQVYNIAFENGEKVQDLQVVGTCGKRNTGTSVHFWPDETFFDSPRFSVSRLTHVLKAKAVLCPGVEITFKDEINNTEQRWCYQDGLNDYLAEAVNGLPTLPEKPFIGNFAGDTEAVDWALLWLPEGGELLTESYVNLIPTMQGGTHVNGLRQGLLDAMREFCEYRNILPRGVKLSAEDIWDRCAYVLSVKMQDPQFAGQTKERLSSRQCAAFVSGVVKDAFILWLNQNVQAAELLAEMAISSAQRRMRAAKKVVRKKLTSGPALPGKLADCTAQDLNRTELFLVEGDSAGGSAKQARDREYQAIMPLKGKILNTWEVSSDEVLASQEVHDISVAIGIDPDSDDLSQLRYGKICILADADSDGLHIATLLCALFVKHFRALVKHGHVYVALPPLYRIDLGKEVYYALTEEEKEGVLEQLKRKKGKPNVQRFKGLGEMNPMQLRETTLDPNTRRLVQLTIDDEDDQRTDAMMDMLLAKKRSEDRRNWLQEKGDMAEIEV
Sequence of E. coli topoisomerase IV (P0AFI2 whole entry): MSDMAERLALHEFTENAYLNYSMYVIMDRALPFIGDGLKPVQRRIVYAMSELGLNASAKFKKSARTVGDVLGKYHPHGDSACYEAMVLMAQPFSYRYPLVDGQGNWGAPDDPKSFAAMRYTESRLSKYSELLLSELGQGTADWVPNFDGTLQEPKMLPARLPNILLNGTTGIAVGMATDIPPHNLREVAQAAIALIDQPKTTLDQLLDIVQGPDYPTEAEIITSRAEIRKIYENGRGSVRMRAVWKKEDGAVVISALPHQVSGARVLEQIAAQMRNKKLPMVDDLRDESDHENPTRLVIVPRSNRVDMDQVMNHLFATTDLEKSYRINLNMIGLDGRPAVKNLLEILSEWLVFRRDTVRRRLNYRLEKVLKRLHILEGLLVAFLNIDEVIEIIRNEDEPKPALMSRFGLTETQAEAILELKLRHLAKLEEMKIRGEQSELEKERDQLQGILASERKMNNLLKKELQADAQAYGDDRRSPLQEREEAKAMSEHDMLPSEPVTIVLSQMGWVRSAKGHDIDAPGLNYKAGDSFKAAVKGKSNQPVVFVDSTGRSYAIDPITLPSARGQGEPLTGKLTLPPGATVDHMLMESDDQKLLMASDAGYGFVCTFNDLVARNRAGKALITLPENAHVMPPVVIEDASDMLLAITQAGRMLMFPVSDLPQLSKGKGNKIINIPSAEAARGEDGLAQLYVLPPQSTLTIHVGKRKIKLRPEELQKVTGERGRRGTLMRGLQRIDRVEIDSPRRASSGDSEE

[10] = test system: Enterobacter cloacae ATCC 13047; assay: MIC studies in LB Media; type: cell-based; conditions: ATCC13047, read-out: Minimum Inhibitory Concentration in LB Media, E. cl
Protocol: as §1

[11] = test system: Citrobacter freundii ATCC 43864; assay: MIC studies in LB Media; type: cell-based; conditions: ATCC43864, read-out: Minimum Inhibitory Concentration in LB Media, C. fr
Protocol: as §1

[12] = test system: Morganella morganii ATCC 25830; assay: MIC studies in LB Media; type: cell-based; conditions: ATCC25830, read-out: Minimum Inhibitory Concentration in LB Media, M. mo
Protocol: as §1

[13] = test system: Proteus mirabilis ATCC 43071; assay: MIC studies in LB Media; type: cell-based; conditions: ATCC43071, read-out: Minimum Inhibitory Concentration in LB Media, P. mi
Protocol: as §1

[14] = test system: E. coli [ATCC25922]; assay: Neutropenic Thigh Infection Model in Rat, E. coli; type: in vivo; conditions: 10 mg/kg, i.v. bolus
[15] = test system: K. pneumoniae [ATCC13883]; assay: Neutropenic Thigh Infection Model in Rat, K. pneumoniae; type: in vivo; conditions: 10 mg/kg, i.v. bolus
[16] = individual animals, 10 hr post infection

| SMILES | IC50 [1] [µM] | MIC [2] [µg/mL] | MIC [3] [µg/mL] | MIC [4] [µg/mL] | MIC [5] [µg/mL] | MIC [6] [µg/mL] | MIC [7] [µg/mL] | IC50 [8] [µM] | IC50 [9] [µM] | MIC [10] [µg/mL] | MIC [11] [µg/mL] | MIC [12] [µg/mL] | MIC [13] [µg/mL] | Mean Log 10 CFU/thigh reduction (wrt 2 h PI control: 5.04 Log10CFU/g thigh) [14] [Log 10 CFU/thigh] | MEAN ± SD (Log10 CFU/g thigh) ([14]; 10 hr post infection) | Log10 CFU/g thigh [14, 16] | MEAN ± SD (Log10 CFU/g thigh) [15] [Log10 CFU/g thigh] | Mean Log 10 CFU/thigh reduction (wrt 2 h PI control: 5.04 Log10CFU/g thigh) [15] [Log 10 CFU/thigh] | Log10 CFU/g thigh [15, 16] |
| --- | --- | --- | --- | --- | --- | --- | --- | --- | --- | --- | --- | --- | --- | --- | --- | --- | --- | --- | --- |
| Cc1cc(=O)n(C)c2c(OCCNC[C@H]3CN(c4cnc5c(n4)NC(=O)CO5)C(=O)O3)c(F)ccc12 [Compound 5, (S)-6-(5-(((2-((7-fluoro-1,4-dimethyl-2-oxo-1,2-dihydroquinolin-8-yl)oxy)ethyl)amino)methyl)-2-oxooxazolidin-3-yl)-2H-pyrazino[2,3-b][1,4]oxazin-3(4H)-one] | 71 | 0.06 (≈ 0.12 µM) | 0.25 (≈ 0.502 µM) | 0.125 (≈ 0.251 µM) | 0.125 (≈ 0.251 µM) | 1 (≈ 2.01 µM) | 0.25 (≈ 0.502 µM) | 0.033 | < 0.187 | – | – | – | – | – | – | – | – | – | – |
| Cn1c(=O)cnc2ccc(F)c(OCCNC[C@@H]3CN(c4cnc5c(n4)NC(=O)CO5)C(=O)O3)c21 [Compound 8, (R)-6-(5-(((2-((6-fluoro-4-methyl-3-oxo-3,4-dihydroquinoxalin-5-yl)oxy)ethyl)amino)methyl)-2-oxooxazolidin-3-yl)-2H-pyrazino[2,3-b][1,4]oxazin-3(4H)-one] | 58 | 0.03 (≈ 0.0618 µM) | 0.06 (≈ 0.124 µM) | ≤ 0.015 | 0.06 (≈ 0.124 µM) | 0.5 (≈ 1.03 µM) | 0.06 (≈ 0.124 µM) | – | – | 0.125 (≈ 0.258 µM) | 0.06 (≈ 0.124 µM) | 0.03 (≈ 0.0618 µM) | 0.25 (≈ 0.515 µM) | – | – | – | – | – | – |
| Cc1nc2ccc(F)c(OCCNC[C@H]3CN(c4cnc5c(n4)NC(=O)CO5)C(=O)O3)c2n(C)c1=O [Compound 9, (S)-6-(5-(((2-((6-fluoro-2,4-dimethyl-3-oxo-3,4-dihydroquinoxalin-5-yl)oxy)ethyl)amino)methyl)-2-oxooxazolidin-3-yl)-2H-pyrazino[2,3-b][1,4]oxazin-3(4H)-one] | – | 0.125 (≈ 0.25 µM) | 0.125 (≈ 0.25 µM) | ≤ 0.06 | 0.25 (≈ 0.501 µM) | 4 (≈ 8.01 µM) | 0.5 (≈ 1 µM) | 0.04 | – | 1 (≈ 2 µM) | 0.25 (≈ 0.501 µM) | 0.5 (≈ 1 µM) | 2 (≈ 4 µM) | – | – | – | – | – | – |
| O=C(O)c1cn(C2CC2)c2cc(N3CCNCC3)c(F)cc2c1=O [Ciprofloxacin, ciprofloxacin, reference compound] | – | – | – | – | – | – | – | – | – | – | – | – | – | 2.12 | 3.73 ± 0.21 | 3.74 Log10 CFU/g thigh and 3.94 Log10 CFU/g thigh and 3.52 Log10 CFU/g thigh | 3.30 ± 0.11 | 1.74 | 3.22 Log10 CFU/g thigh and 3.25 Log10 CFU/g thigh and 3.42 Log10 CFU/g thigh |
| Cn1c(=O)ccc2ccc(F)c(OCCNC[C@@H]3CN(c4cnc5c(n4)NC(=O)CO5)C(=O)O3)c21 [Compound 3, (R)-6-(5-(((2-((7-fluoro-1-methyl-2-oxo-1,2-dihydroquinolin-8-yl)oxy)ethyl)amino)methyl)-2-oxooxazolidin-3-yl)-2H-pyrazino[2,3-b][1,4]oxazin-3(4H)-one] | 25 | 0.06 (≈ 0.124 µM) | 0.06 (≈ 0.124 µM) | 0.015 (≈ 0.031 µM) | 0.06 (≈ 0.124 µM) | 0.5 (≈ 1.03 µM) | 0.06 (≈ 0.124 µM) | 0.011 | – | 0.125 (≈ 0.258 µM) | 0.06 (≈ 0.124 µM) | 0.03 (≈ 0.0619 µM) | 0.125 (≈ 0.258 µM) | – | – | – | – | – | – |
| CC(COc1c(F)ccc2ccc(=O)n(C)c12)NC[C@H]1CN(c2cnc3c(n2)NC(=O)CO3)C(=O)O1 (stereo partly drawn) [Compound 4, 6-((5S)-5-(((1-((7-fluoro-1-methyl-2-oxo-1,2-dihydroquinolin-8-yl)oxy)propan-2-yl)amino)methyl)-2-oxooxazolidin-3-yl)-2H-pyrazino[2,3-b][1,4]oxazin-3(4H)-one] | 36 | 0.25 (≈ 0.502 µM) | 0.25 (≈ 0.502 µM) | 0.06 (≈ 0.12 µM) | 0.125 (≈ 0.251 µM) | 2 (≈ 4.01 µM) | 0.25 (≈ 0.502 µM) | 0.03 | < 0.35 | 0.5 (≈ 1 µM) | 0.5 (≈ 1 µM) | 1 (≈ 2.01 µM) | 2 (≈ 4.01 µM) | – | – | – | – | – | – |
| Cn1c(=O)cnc2ccc(F)c(OCCNC[C@H]3CN(c4cnc5c(n4)NC(=O)CS5)C(=O)O3)c21 [Compound 10, (S)-5-(((2-((6-fluoro-4-methyl-3-oxo-3,4-dihydroquinoxalin-5-yl)oxy)ethyl)amino)methyl)-3-(3-oxo-3,4-dihydro-2H-pyrazino[2,3-b][1,4]thiazin-6-yl)oxazolidin-2-one] | 19 | 0.025 (≈ 0.0499 µM) | 0.013 (≈ 0.0259 µM) | ≤ 0.003 | 0.025 (≈ 0.0499 µM) | 0.25 (≈ 0.499 µM) | 0.025 (≈ 0.0499 µM) | 0.022 | < 0.37 | 0.05 (≈ 0.0997 µM) | 0.025 (≈ 0.0499 µM) | 0.025 (≈ 0.0499 µM) | 0.125 (≈ 0.249 µM) | – | – | – | – | – | – |
| Cn1c(=O)ccc2ncc(Cl)c(OCCNC[C@H]3CN(c4cnc5c(n4)NC(=O)CO5)C(=O)O3)c21 [Compound 6, (S)-6-(5-(((2-((3-chloro-5-methyl-6-oxo-5,6-dihydro-1,5-naphthyridin-4-yl)oxy)ethyl)amino)methyl)-2-oxooxazolidin-3-yl)-2H-pyrazino[2,3-b][1,4]oxazin-3(4H)-one] | – | > 4 | > 4 | > 4 | > 4 | > 4 | > 4 | 6.33 | 17.7 | > 4 | > 4 | > 4 | > 4 | – | – | – | – | – | – |
